In patent US6977142B2, “High-throughput turbidometric assay for screening inhibitors of protein disulfide isomerase activity” (AGY Therapeutics, Inc., priority 2003, dated 2005):
Several values for one entry are separate records, joined by “and”; a condition that tells them apart may be missing. Equal entries are not always repeated. Where a SMILES comes first, the peptide text is derived from it.

Assays:
[1] = target: T1, Protein disulfide isomerase (PDI) from bovine liver (Bos taurus, UniProt P05307); assay: High-throughput turbidometric assay of PDI-catalyzed insulin reduction (OD650, H2O2 stop); format: biochemical
T1 construct: Protein disulfide isomerase (PDI) from bovine liver (Catalog number P3818); purchased Sigma P3818; host or cells: bovine liver (tissue-derived enzyme)
T1 sequence (P05307 21-510): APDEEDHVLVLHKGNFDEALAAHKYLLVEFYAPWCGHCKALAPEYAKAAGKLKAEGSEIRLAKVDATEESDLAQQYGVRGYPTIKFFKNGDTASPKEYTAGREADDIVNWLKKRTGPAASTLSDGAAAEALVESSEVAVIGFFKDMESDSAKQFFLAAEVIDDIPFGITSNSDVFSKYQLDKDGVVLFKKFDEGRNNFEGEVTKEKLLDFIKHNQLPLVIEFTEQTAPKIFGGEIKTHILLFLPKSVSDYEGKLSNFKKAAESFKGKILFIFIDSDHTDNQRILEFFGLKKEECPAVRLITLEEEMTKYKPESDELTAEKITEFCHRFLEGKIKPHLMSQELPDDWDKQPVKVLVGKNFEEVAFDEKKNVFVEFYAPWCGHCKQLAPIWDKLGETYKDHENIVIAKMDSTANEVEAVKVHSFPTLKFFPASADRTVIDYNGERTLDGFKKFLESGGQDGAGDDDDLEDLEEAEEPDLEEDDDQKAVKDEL
Description: Protein disulfide isomerase (PDI) from bovine liver (Catalog number P3818), insulin from bovine pancreas (Catalog number 14011), dithiothreitol (Catalog number D9779), H2O2 (Catalog number H6520) and bacitracin (Catalog number B0125) were purchased from Sigma. A stock solution of 1.6 mM insulin was prepared by dissolving insulin in 0.1 N HCl. Clear polystyrene 384-well assay plates were obtained from Greiner (Catalog number 781101). All reagents used in this study were of analytical grade.
The assay utilized the method according to Bonfils (1998) Eur J Biochem 254:420–427, but was miniaturized in 384-well plates. The assay buffer consisted of 100 mM potassium phosphate and 0.2 mM EDTA, pH 7.0. In a standard room temperature assay, insulin from a 1.6 mM stock solution and PDI from a 5 mg/mL stock were added to final concentrations of 0.16 mM and 33 ug/mL in assay buffer, respectively. Aliquots of the reaction mixture were then added at 30 μL per well to 384-well assay plates. To initiate the reaction, 5 μL of 7 mM dithiothreitol (final concentration 1 mM) was added and quickly mixed. The enzyme reaction was monitored at 650 nm on a SpectraMax Plus plate reader (Molecular Devices, Sunnyvale, Calif.).
For high-throughput screening, a Biomek 2000 liquid handling system (Beckman-Coulter, Palo Alto, Calif.) was used to add 5 μL of 1 M positive control H2O2 to each well in column 24 of the assay plates. Then a Biomek FX384 pipettor (Beckman-Coulter, Palo Alto, Calif.) was programmed to automate the subsequent additions. The pipettor aspirated 29 μL of the enzyme/substrate mixture, applied a 0.5-μL air gap, dipped into DMSO to wash the pipette tip exterior, pipetted 1 μL of 300 μM compound, and then dispensed the entire volume into the assay plate. After the dispense step, the compound was mixed well with the enzyme and substrate. Following a 10 min pre-incubation, 5 μL of 7 mM dithiothreitol was dispensed into the reaction wells. This was followed immediately by a mixing step, in which 20 μL of the mixture was aspirated and dispensed twice in the well. The reaction was allowed to proceed for 30 min and stopped by adding 5 μL of 1 M H2O2 (final concentration 125 mM) to each well. The optical density of each well was measured at 650 nm on the SpectraMax Plus plate reader.
For data analysis, the results are presented as mean±standard deviation. Dose-response curves were fitted by least square regression using Prism (version 3.03). The Z′ factor was calculated according to Zhang et al. (1999) J Biomol Screen 4:67–73.

[2] = target: PDI (Homo sapiens, UniProt P07237); conditions: insulin reduction assay, reported in the literature; cited from earlier work
Chain of PDI (P07237 18-508, species assumed): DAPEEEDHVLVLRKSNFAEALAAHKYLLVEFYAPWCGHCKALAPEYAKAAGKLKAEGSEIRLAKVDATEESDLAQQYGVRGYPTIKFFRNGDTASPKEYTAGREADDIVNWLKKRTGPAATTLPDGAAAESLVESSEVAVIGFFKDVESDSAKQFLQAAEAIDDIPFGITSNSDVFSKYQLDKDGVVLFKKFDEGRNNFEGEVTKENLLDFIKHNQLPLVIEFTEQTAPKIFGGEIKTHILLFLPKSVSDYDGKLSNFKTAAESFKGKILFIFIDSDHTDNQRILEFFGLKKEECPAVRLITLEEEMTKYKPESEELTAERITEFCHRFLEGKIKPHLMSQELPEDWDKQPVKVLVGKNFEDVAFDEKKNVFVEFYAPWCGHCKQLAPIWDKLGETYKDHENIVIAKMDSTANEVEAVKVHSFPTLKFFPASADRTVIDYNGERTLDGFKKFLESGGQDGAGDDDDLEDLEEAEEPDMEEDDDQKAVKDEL

Question: What does the source list for `CC[C@H](C)[C@H](N)C1=N[C@H](C(=O)N[C@@H](CC(C)C)C(=O)N[C@H](CCC(=O)O)C(=O)N[C@H](C(=O)N[C@H]2CCCCNC(=O)[C@H](CC(N)=O)NC(=O)[C@@H](CC(=O)O)NC(=O)[C@H](Cc3cnc[nH]3)NC(=O)[C@@H](Cc3ccccc3)NC(=O)[C@H]([C@@H](C)CC)NC(=O)[C@@H](CCCN)NC2=O)[C@@H](C)CC)CS1` [bacitracin] (HELM PEPTIDE1{[CC[C@H](C)[C@H](N)C1=N[C@H](C(=O)[*:2])CS1].L.[dE].I.K.[NCCC[C@@H](N[*:1])C(=O)[*:2]].I.[dF].H.[dD].N}$PEPTIDE1,PEPTIDE1,5:R3-11:R2$$$V2.0)?
Answer: behaviour as stop reagent ([1]; 2 mM bacitracin added 30 min after initiation of the reaction): slow inhibitor; inhibition of the enzyme reaction ([1]; bacitracin incubated with the enzyme prior to the addition of dithiothreitol): dramatically inhibited the enzyme reaction; Hill slope ([1]; dose-response curve, non-linear regression): 1.2±0.2 and 1.2; IC50 ([1]; inhibitor incubated with enzyme and insulin 10 minutes prior to initiation with dithiothreitol, dose-response): 152 ± 25 µM; IC50 [2]: ~200 µM
